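1) Cells in 96-well plates. 2) Compound, 48 h, 5 concentrations. 3) Linear interpolation between surrounding doses. 4) Unreached endpoint = highest concentration. GI50: concentration for 50% inhibition of growth. TGI denotes the concentration required for complete inhibition of growth.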
Columns and labels:
Assay in all cases: NCI tumour cell line growth inhibition, 48 h
786-0 renal = tested on: 786-0 renal
A549 NSCLC = tested on: A549 NSCLC
ACHN renal = tested on: ACHN renal
HOP-92 NSCLC = tested on: HOP-92 NSCLC
KM12 colon = tested on: KM12 colon
M14 melanoma = tested on: M14 melanoma
MOLT-4 leukemia = tested on: MOLT-4 leukemia
OVCAR-4 ovarian = tested on: OVCAR-4 ovarian
SR leukemia = tested on: SR leukemia

Row | Compound | TGI (786-0 renal) [µM] | TGI (A549 NSCLC) [µM] | TGI (ACHN renal) [µM] | TGI (HOP-92 NSCLC) [µM] | TGI (KM12 colon) [µM] | TGI (M14 melanoma) [µM] | TGI (MOLT-4 leukemia) [µM] | TGI (OVCAR-4 ovarian) [µM] | TGI (SR leukemia) [µM] | GI50 (KM12 colon) [µM]
1 | CC12CCCC3(CC(=O)C(C)(C)C3C(=O)C1)C2 (stereo not given) | > 100 | > 100 | > 100 | > 100 | > 100 | > 100 | > 100 | > 100 | > 100 | –
2 | C#CCN(Cc1ccc2nc(OC)c(OC)nc2c1)c1cc(OC)c(OC)c(OC)c1 | 78.7 | > 89.6 | > 100 | 62.6 | 54.9 | 71.2 | 72.6 | > 46.9 | > 61.7 | –
3 | COc1cc2ccc1OCc1cccc(n1)COc1ccc(cc1OC)C=Nc1ccc(cc1)N=C2 | > 100 | > 100 | > 100 | > 100 | > 100 | > 100 | > 100 | > 100 | > 100 | –
4 | CN(C)CCC(=O)/C=C\c1ccccc1 | 29.8 | 48.3 | 32.5 | 32.9 | 29.2 | 30.4 | 33.1 | 33.3 | 35.1 | –
5 | C[C@]12CC[C@@H]3c4cc(I)c(O)cc4CC[C@H]3[C@@H]1CC[C@@H]2O | 18.4 | 25.1 | 21 | 26.3 | 13.2 | 17.4 | > 54.8 | 39.3 | 13.7 | –
6 | COc1ccc(N(C(=O)Nc2ccc(Cl)c(Cl)c2)C2c3cccn3C(=O)N2c2ccc(Cl)c(Cl)c2)cc1 (stereo not given) | > 100 | > 100 | > 100 | > 100 | > 100 | > 100 | > 100 | > 100 | > 100 | –
7 | O=C1NCN(c2ccccc2)C12CCN(CCCN1CCN(CCOC(c3ccc(F)cc3)c3ccc(F)cc3)CC1)CC2 | 3.2 | 4.14 | 3.85 | 3.9 | 6.09 | 3.48 | 15.1 | 9.58 | 6.67 | –
8 | COc1cc2c(c(O)c1OC)C(=O)C(Cc1ccc(O)cc1)CO2 (stereo not given) | > 100 | 60.7 | > 100 | > 100 | > 100 | 84 | > 100 | > 100 | > 100 | –
9 | C1=C\SS/C=C\SS/1 | 35.8 | > 100 | > 100 | 97.3 | > 100 | > 100 | 78.7 | > 100 | > 100 | –
10 | O=c1[nH]c(Nc2cccc(CO)c2)nc2nc[nH]c12 | > 100 | > 100 | > 100 | > 100 | > 100 | > 100 | > 100 | > 100 | > 100 | –
11 | C=C1c2nc3ccccc3n2C=C(c2ccc(Cl)cc2)N1c1ccc(OC)cc1 | 20.7 | 30.4 | 13.5 | 43.6 | 18.7 | 21 | > 100 | 46.2 | > 100 | –
12 | O=C1c2ccccc2NC(=S)[C@@H]2CCCN12 | > 100 | > 100 | > 100 | > 100 | > 100 | > 100 | > 100 | > 100 | > 100 | –
13 | CC(=O)c1cnc2oc3ccc(O)cc3c2c1-c1ccccc1 | > 100 | > 100 | > 100 | > 100 | > 100 | > 100 | > 100 | 36.6 | > 100 | 40.8
14 | O=C(c1ccncc1)C1C(=O)c2ccccc2C1C1(O)c2ccccc2CC1C(O)c1ccncc1 (stereo not given) | > 100 | > 100 | > 100 | > 100 | > 100 | > 100 | 69.7 | > 100 | > 100 | –
15 | [O-]/[N+](=C\c1ccccc1OC(=S)S)c1ccc(Cl)cc1 | 50.3 | > 100 | > 100 | 18.1 | > 100 | > 100 | > 100 | 37 | > 100 | –
16 | CCOC(=O)C#Cc1ccccc1 | 21.5 | 58.3 | > 100 | 36.9 | 31.2 | 39.1 | 12.8 | 11.7 | 4.76 | –

— PubChem BioAssay (NCI)
